Experiments:
S. aureus DSM 20231 [1] = assay: fitness (endpoint OD595 vs no drug) (fraction); higher = more growth
Summary of the method: (§1)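 Bacterial fitness was scored as optical density at the stationary-phase transition relative to the robust mean of no-drug control wells. Scores are capped at 1. The growth data were OD595 readings every 30 min for 14 h at 37 °C, background-subtracted against the first reading, from 384-well plates inoculated at OD595 0.01 in TSB, LB Lennox or CY.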

S. aureus Newman [2] = assay: as above
Summary of the method: as §1

S. pneumoniae D39V [3] = assay: as above
Summary of the method: as §1

B. subtilis 168 = assay: Bliss interaction score (quartile over a dose matrix) (fitness difference); higher = more antagonism (negative = synergy)
Summary of the method: (§2)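 The Bliss score takes observed fitness and subtracts the expected fitness, calculated as a product of single-drug fitness values. Those single-drug values were inferred from the combination data. Fitness is OD595 at entry into stationary phase divided by the plate's robust no-drug mean, capped at 1, and the score is summarised by quartiles across technical, biological and donor/recipient replicates.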

S. aureus DSM 20231 [4] = assay: as above
Summary of the method: as §2

S. aureus Newman [5] = assay: as above
Summary of the method: as §2

S. pneumoniae D39V [6] = assay: as above
Summary of the method: as §2
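Wherever Bliss interaction score (quartile over a dose matrix) is given: first quartile when negative (synergy) and third quartile when positive (antagonism).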
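Wherever fitness (endpoint OD595 vs no drug) is given: OD595 on entry to stationary phase over no-drug wells; at most 1.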

C[n+]1ccc(-c2cc[n+](C)cc2)cc1 [Paraquat] + CN[C@H](CC(C)C)C(=O)N[C@H]1C(=O)N[C@@H](CC(N)=O)C(=O)N[C@H]2C(=O)N[C@H]3C(=O)N[C@H](C(=O)N[C@H](C(=O)O)c4cc(O)cc(O)c4-c4cc3ccc4O)[C@H](O)c3ccc(c(Cl)c3)Oc3cc2cc(c3O[C@@H]2O[C@H](CO)[C@@H](O)[C@H](O)[C@H]2O[C@H]2C[C@](C)(N)[C@H](O)[C@H](C)O2)Oc2ccc(cc2Cl)[C@H]1O [Vancomycin]
Settings	fitness
S. aureus DSM 20231 [1], first compound 1.25 µg/mL, partner 0.1875 µg/mL	0.908
S. aureus DSM 20231 [1], first compound 1.25 µg/mL, partner 0.375 µg/mL	0.956
S. aureus DSM 20231 [1], first compound 1.25 µg/mL, partner 0.75 µg/mL	0.963
S. aureus DSM 20231 [1], first compound 2.5 µg/mL, partner 0.1875 µg/mL	0.87
S. aureus DSM 20231 [1], first compound 2.5 µg/mL, partner 0.375 µg/mL	0.986
S. aureus DSM 20231 [1], first compound 2.5 µg/mL, partner 0.75 µg/mL	0.969
S. aureus DSM 20231 [1], first compound 5 µg/mL, partner 0.1875 µg/mL	0.861
S. aureus DSM 20231 [1], first compound 5 µg/mL, partner 0.375 µg/mL	≥ 1
S. aureus DSM 20231 [1], first compound 5 µg/mL, partner 0.75 µg/mL	0.964
S. aureus Newman [2], first compound 1.25 µg/mL, partner 0.1875 µg/mL	0.933
S. aureus Newman [2], first compound 1.25 µg/mL, partner 0.375 µg/mL	0.898
S. aureus Newman [2], first compound 2.5 µg/mL, partner 0.1875 µg/mL	0.911
S. aureus Newman [2], first compound 2.5 µg/mL, partner 0.375 µg/mL	0.898
S. aureus Newman [2], first compound 5 µg/mL, partner 0.1875 µg/mL	0.933
S. aureus Newman [2], first compound 5 µg/mL, partner 0.375 µg/mL	0.917
S. aureus Newman [2], first compound 5 µg/mL, partner 0.75 µg/mL	0.935
S. pneumoniae D39V [3], first compound 1.5 µg/mL, partner 0.03125 µg/mL	0.998
S. pneumoniae D39V [3], first compound 1.5 µg/mL, partner 0.0625 µg/mL	0.984
S. pneumoniae D39V [3], first compound 1.5 µg/mL, partner 0.125 µg/mL	0.855
S. pneumoniae D39V [3], first compound 3 µg/mL, partner 0.03125 µg/mL	1
S. pneumoniae D39V [3], first compound 3 µg/mL, partner 0.0625 µg/mL	0.994
S. pneumoniae D39V [3], first compound 3 µg/mL, partner 0.125 µg/mL	0.851
S. pneumoniae D39V [3], first compound 6 µg/mL, partner 0.03125 µg/mL	≥ 1
S. pneumoniae D39V [3], first compound 6 µg/mL, partner 0.0625 µg/mL	0.974
S. pneumoniae D39V [3], first compound 6 µg/mL, partner 0.125 µg/mL	0.891

fitness, S. pneumoniae D39V [3], one replicate
Settings	first compound 1.5 µg/mL	first compound 3 µg/mL	first compound 6 µg/mL
partner 0.25 µg/mL	0.18	0.249	0.372
partner 0.5 µg/mL	0.0697	0.0334	0.129

Settings	Bliss interaction score
B. subtilis 168	0.0779
S. aureus DSM 20231 [4]	0.0505
S. aureus Newman [5]	0.0613
S. pneumoniae D39V [6]	0.101

Cn1c2cccc(=O)c-2nc2ccccc21 [Pyocyanin] + Cn1nnc(-c2ccc(-c3ccc(N4C[C@H](CO)OC4=O)cc3F)cn2)n1 [Tedizolid]
fitness
Settings	partner 0.03125 µg/mL	partner 0.0625 µg/mL	partner 0.125 µg/mL	partner 0.25 µg/mL
S. aureus DSM 20231 [1], first compound 1.25 µg/mL	–	0.813	0.739	0.218
S. aureus DSM 20231 [1], first compound 2.5 µg/mL	–	0.8	0.701	0.242
S. aureus DSM 20231 [1], first compound 5 µg/mL	–	0.635	0.565	0.169
S. aureus Newman [2], first compound 1.25 µg/mL	–	0.853	0.789	–
S. aureus Newman [2], first compound 2.5 µg/mL	–	0.764	0.651	–
S. aureus Newman [2], first compound 5 µg/mL	–	–	0.248	0.161
S. pneumoniae D39V [3], first compound 0.325 µg/mL	0.976	0.978	0.798	–
S. pneumoniae D39V [3], first compound 0.65 µg/mL	0.97	0.952	0.844	–
S. pneumoniae D39V [3], first compound 1.3 µg/mL	0.753	0.731	0.652	–

fitness, S. pneumoniae D39V [3], one replicate
Settings	first compound 0.325 µg/mL	first compound 0.65 µg/mL
partner 0.25 µg/mL	0.736	0.821
partner 0.5 µg/mL	0.344	0.545

Settings	Bliss interaction score
B. subtilis 168	0.0439
S. aureus DSM 20231 [4]	0.0928
S. aureus Newman [5]	-0.065
S. pneumoniae D39V [6]	-0.0686

Cc1onc(-c2ccccc2)c1C(=O)N[C@@H]1C(=O)N2[C@@H]1SC(C)(C)[C@@H]2C(=O)O [Oxacillin] + CN[C@H](CC(C)C)C(=O)N[C@H]1C(=O)N[C@@H](CC(N)=O)C(=O)N[C@H]2C(=O)N[C@H]3C(=O)N[C@H](C(=O)N[C@H](C(=O)O)c4cc(O)cc(O)c4-c4cc3ccc4O)[C@H](O)c3ccc(c(Cl)c3)Oc3cc2cc(c3O[C@@H]2O[C@H](CO)[C@@H](O)[C@H](O)[C@H]2O[C@H]2C[C@](C)(N)[C@H](O)[C@H](C)O2)Oc2ccc(cc2Cl)[C@H]1O [Vancomycin]
Settings	fitness
S. aureus DSM 20231 [1], first compound 0.0156 µg/mL, partner 0.1875 µg/mL	0.776
S. aureus DSM 20231 [1], first compound 0.0156 µg/mL, partner 0.375 µg/mL	0.867
S. aureus DSM 20231 [1], first compound 0.0156 µg/mL, partner 0.75 µg/mL	0.81
S. aureus DSM 20231 [1], first compound 0.0312 µg/mL, partner 0.1875 µg/mL	0.641
S. aureus DSM 20231 [1], first compound 0.0312 µg/mL, partner 0.375 µg/mL	0.73
S. aureus DSM 20231 [1], first compound 0.0312 µg/mL, partner 0.75 µg/mL	0.679
S. aureus DSM 20231 [1], first compound 0.0625 µg/mL, partner 0.1875 µg/mL	0.519
S. aureus DSM 20231 [1], first compound 0.0625 µg/mL, partner 0.375 µg/mL	0.516
S. aureus DSM 20231 [1], first compound 0.0625 µg/mL, partner 0.75 µg/mL	0.564
S. aureus Newman [2], first compound 0.0156 µg/mL, partner 0.1875 µg/mL	0.785
S. aureus Newman [2], first compound 0.0156 µg/mL, partner 0.375 µg/mL	0.756
S. aureus Newman [2], first compound 0.0312 µg/mL, partner 0.1875 µg/mL	0.715
S. aureus Newman [2], first compound 0.0312 µg/mL, partner 0.375 µg/mL	0.724
S. aureus Newman [2], first compound 0.0312 µg/mL, partner 0.75 µg/mL	0.712
S. aureus Newman [2], first compound 0.0625 µg/mL, partner 0.1875 µg/mL	0.652
S. aureus Newman [2], first compound 0.0625 µg/mL, partner 0.375 µg/mL	0.637
S. pneumoniae D39V [3], first compound 0.01 µg/mL, partner 0.03125 µg/mL	0.988
S. pneumoniae D39V [3], first compound 0.01 µg/mL, partner 0.0625 µg/mL	0.906
S. pneumoniae D39V [3], first compound 0.01 µg/mL, partner 0.25 µg/mL	0.243
S. pneumoniae D39V [3], first compound 0.01 µg/mL, partner 0.5 µg/mL	0.0401
S. pneumoniae D39V [3], first compound 0.02 µg/mL, partner 0.03125 µg/mL	0.859
S. pneumoniae D39V [3], first compound 0.02 µg/mL, partner 0.0625 µg/mL	0.734
S. pneumoniae D39V [3], first compound 0.02 µg/mL, partner 0.25 µg/mL	0.149
S. pneumoniae D39V [3], first compound 0.02 µg/mL, partner 0.5 µg/mL	0.0421
S. pneumoniae D39V [3], first compound 0.04 µg/mL, partner 0.03125 µg/mL	0.271
S. pneumoniae D39V [3], first compound 0.04 µg/mL, partner 0.0625 µg/mL	0.18
S. pneumoniae D39V [3], first compound 0.04 µg/mL, partner 0.125 µg/mL	0.108
S. pneumoniae D39V [3], first compound 0.04 µg/mL, partner 0.25 µg/mL	0.101
S. pneumoniae D39V [3], first compound 0.04 µg/mL, partner 0.5 µg/mL	0.056

Settings	Bliss interaction score
B. subtilis 168	-0.0574
S. aureus DSM 20231 [4]	-0.0751
S. aureus Newman [5]	-0.0696
S. pneumoniae D39V [6]	-0.302

Cc1cc(NS(=O)(=O)c2ccc(N)cc2)no1 [Sulfamethoxazol] + CN[C@H](CC(C)C)C(=O)N[C@H]1C(=O)N[C@@H](CC(N)=O)C(=O)N[C@H]2C(=O)N[C@H]3C(=O)N[C@H](C(=O)N[C@H](C(=O)O)c4cc(O)cc(O)c4-c4cc3ccc4O)[C@H](O)c3ccc(c(Cl)c3)Oc3cc2cc(c3O[C@@H]2O[C@H](CO)[C@@H](O)[C@H](O)[C@H]2O[C@H]2C[C@](C)(N)[C@H](O)[C@H](C)O2)Oc2ccc(cc2Cl)[C@H]1O [Vancomycin]
fitness
Settings	first compound 1 µg/mL	first compound 2 µg/mL	first compound 4 µg/mL
S. aureus DSM 20231 [1], partner 0.1875 µg/mL	0.929	0.932	0.94
S. aureus DSM 20231 [1], partner 0.375 µg/mL	≥ 1	≥ 1	0.962
S. aureus DSM 20231 [1], partner 0.75 µg/mL	1	0.983	0.998
S. aureus Newman [2], partner 0.1875 µg/mL	0.991	0.988	≥ 1
S. aureus Newman [2], partner 0.375 µg/mL	0.993	0.968	≥ 1
S. aureus Newman [2], partner 0.75 µg/mL	0.977	0.953	≥ 1
S. pneumoniae D39V [3], partner 0.03125 µg/mL	0.964	0.961	0.97
S. pneumoniae D39V [3], partner 0.0625 µg/mL	0.909	0.899	0.961
S. pneumoniae D39V [3], partner 0.125 µg/mL	0.925	0.94	0.952

one replicate
Settings	fitness
S. aureus Newman [2], first compound 8 µg/mL, partner 0.1875 µg/mL	0.87
S. aureus Newman [2], first compound 8 µg/mL, partner 0.375 µg/mL	0.896
S. aureus Newman [2], first compound 8 µg/mL, partner 0.75 µg/mL	0.915
S. pneumoniae D39V [3], first compound 1 µg/mL, partner 0.25 µg/mL	0.262
S. pneumoniae D39V [3], first compound 1 µg/mL, partner 0.5 µg/mL	0.0171
S. pneumoniae D39V [3], first compound 2 µg/mL, partner 0.25 µg/mL	0.258
S. pneumoniae D39V [3], first compound 2 µg/mL, partner 0.5 µg/mL	0.0591
S. pneumoniae D39V [3], first compound 4 µg/mL, partner 0.25 µg/mL	0.772
S. pneumoniae D39V [3], first compound 4 µg/mL, partner 0.5 µg/mL	0.496

Settings	Bliss interaction score
B. subtilis 168	-0.0423
S. aureus DSM 20231 [4]	0.0457
S. aureus Newman [5]	0.0422
S. pneumoniae D39V [6]	0.0444

Reference: the supplement of paper PMC10627819
